Measurements from patent publication US6821980B1, “Substituted 5-benzyl-2,4-diaminopyrimidines” (Basilea Pharmaceutica AG, priority 1999, dated 2004).
In brackets after ≈: the same amount, converted by molar mass. Read-outs that look alike come from different tables or passages of the source.

Key:
[1] = tested on: Streptococcus pneumoniae 1/1; assay: MIC against Streptococcus pneumoniae 1/1; type: cell-based; conditions: Table 2, Streptococcus pneumoniae 1/1, trimethoprim- and penicillin-resistant, serotype 6, clinical isolate; for MIC: read-out: MIC Sp1/1
[2] = molecular target: purified DHFR of strain 157/4696 of Staphylococcus aureus (Staphylococcus aureus, UniProt P13955); assay: biochemical
[3] = tested on: Staphylococcus aureus 101; assay: MIC against Staphylococcus aureus 101; type: cell-based; conditions: Table 2, Staphylococcus aureus 101, MRSA- and trimethoprim-resistant, clinical isolate; for MIC: read-out: MIC Sa101
[4] = molecular target: T1, purified DHFR of strain Sp1/1 of Streptococcus pneumoniae (Streptococcus pneumoniae serotype 4, UniProt Q54801); type: biochemical; conditions: Table 2; IC50 against purified DHFR of strain Sp1/1
T1 sequence (Q54801 1-168 I100L): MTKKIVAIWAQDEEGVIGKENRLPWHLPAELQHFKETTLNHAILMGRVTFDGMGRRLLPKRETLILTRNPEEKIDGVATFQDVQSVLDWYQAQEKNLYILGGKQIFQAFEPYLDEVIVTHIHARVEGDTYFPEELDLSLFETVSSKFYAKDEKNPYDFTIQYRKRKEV

purified DHFR of strain 157/4696 of Staphylococcus aureus, sequence (P13955 whole entry): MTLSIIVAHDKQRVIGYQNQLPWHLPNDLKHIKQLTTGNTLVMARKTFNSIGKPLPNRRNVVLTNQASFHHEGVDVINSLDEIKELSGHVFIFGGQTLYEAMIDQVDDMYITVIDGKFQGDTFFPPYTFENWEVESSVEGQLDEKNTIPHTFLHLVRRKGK

Structure (SMILES) | MIC [1] | IC50 [2] | MIC [3] | IC50 [4] | MIC Sp1/1 [1] | IC50 ([2]; Table 2, IC50 against purified DHFR of strain 157/4696 (highly trimethoprim-resistant; clinical isolate), read-out: DHFR Sa1) | MIC Sa101 [3]
CCOc1cc(Cc2cnc(N)nc2N)cc(OCCC2CCCCO2)c1-c1ccc(O)cc1 (racemic) [Example 08-t, (RS)-4′-(2,4-Diamino-pyrimidin-5-ylmethyl)-6′-ethoxy-2′-[2-(tetrahydro-pyran-2-yl)-ethoxy]-biphenyl-4-ol] | 2 µg/mL (≈ 4.31 µM) | 2400 nM | 8 µg/mL (≈ 17.2 µM) | 25 nM |  |  | 
CCOc1cc(Cc2cnc(N)nc2N)cc(OCC2CC2)c1-c1ccc(O)cc1 [Example 08-h, 2′-Cyclopropylmethoxy-4′-(2,4-diamino-pyrimidin-5-ylmethyl)-6′-ethoxy-biphenyl-4-ol] | 2 µg/mL (≈ 4.92 µM) | 1200 nM | 4 µg/mL (≈ 9.84 µM) | 11 nM |  |  | 
CCOc1cc(Cc2cnc(N)nc2N)cc(OCC)c1-c1ccc(NC(C)=O)c(C)c1 [Example 04-e, N-[4′-(2,4-Diamino-pyrimidin-5-ylmethyl)-2′,6′-diethoxy-3-methyl-biphenyl-4yl]-acetamide] | 4 µg/mL (≈ 9.18 µM) | 1800 nM | 8 µg/mL (≈ 18.4 µM) | 30 nM |  |  | 
CCOc1cc(Cc2cnc(N)nc2N)cc(OS(=O)(=O)N(C)C)c1-c1ccc(CN2CCOCC2)cc1 [Example 65-, Dimethylsulphamic acid 4-(2,4-diamino-pyrimidin-5-ylmethyl)-6-ethoxy-4′-morpholin-4-ylmethyl-biphenyl-2-yl ester] | 2 µg/mL (≈ 3.69 µM) | 160 nM | 2 µg/mL (≈ 3.69 µM) | 24 nM |  |  | 
CCOc1cc(Cc2cnc(N)nc2N)cc(OS(=O)(=O)N(C)CC)c1-c1ccc(N)c(C)c1 [Example 27-b, N-Ethyl-N-methyl-sulphamic acid 4′-amino-4-(2,4-diamino-vyrimidin-5-ylmethyl)-6-ethoxy-3′-methyl-biphenyl-2-yl ester] | 1 µg/mL (≈ 2.06 µM) | 190 nM | 2 µg/mL (≈ 4.11 µM) | 14 nM |  |  | 
CCOc1cc(Cc2cnc(N)nc2N)cc(OCC2(CCC#N)CC2)c1-c1ccc(O)cc1 [Example 47-, 3-{1-[4-(2,4-Diamino-pyrimidin-5-yjmethyl)-6-ethoxy-4′-hydroxy-biphenyl-2-loxymethyl]-cycloprropyl}-propionitrile] |  |  |  | 10 nM | 2 µg/mL (≈ 4.35 µM) | 1200 nM | 8 µg/mL (≈ 17.4 µM)
CCOc1cc(Cc2cnc(N)nc2N)cc(OS(=O)(=O)c2ccc(OC)c(F)c2)c1-c1cccc(N)c1 [Example 14-e, 3-Fluoro-4-methoxy-benzenesulphonic acid 3′-amino-4-(2,4-diamino-pyrimidin-5-ylmethyl)-6-ethoxy-biphenyl-2-yl ester] | 1 µg/mL (≈ 1.85 µM) | 410 nM | 8 µg/mL (≈ 14.8 µM) | 12 nM |  |  | 
CCOc1cc(Cc2cnc(N)nc2N)cc(OCC)c1-c1ccc(COCC(=O)N2CCSCC2)s1 [Example 03-b, 2-[5-[4-(2,4-Diamino-pyrimidin-5-ylmethyl)-2,6-diethoxy-phenyl]-thiophen-2-ylmethoxy]-1-thiomorpholin-4-yl-ethanone] | 2 µg/mL (≈ 3.68 µM) | 1600 nM | 8 µg/mL (≈ 14.7 µM) | 19 nM |  |  | 
CCOc1cc(Cc2cnc(N)nc2N)cc(OCC)c1-c1cccc(OCCOC)c1 [Example 50-, 5-[2,6-Diethoxy-3′-(2-methoxy-ethoxy)-biphenyl-4-ylmethyl]-pyrimidine-2,4-diamine] | 4 µg/mL (≈ 9.12 µM) | 10000 nM | 8 µg/mL (≈ 18.2 µM) | 32 nM |  |  | 
CCOc1cc(Cc2cnc(N)nc2N)cc(OS(=O)(=O)N(C)C)c1-c1ccc(S(C)(=O)=O)cc1 [Example 60-, Dimethylsulphamic acid 4-(2,4-diamino-pyrimidin-5-ylmethyl)-6-ethoxy-4′-methanesulphonyl-biphenyl-2-yl ester] | 8 µg/mL (≈ 15.3 µM) | 280 nM | 4 µg/mL (≈ 7.67 µM) | 88 nM |  |  | 
CCOc1cc(Cc2cnc(N)nc2N)cc(OS(=O)(=O)N(C)C)c1-c1ccc(N)c(F)c1 [Example 28-a, Dimethylsullhamic acid 4′-amino-4-(2,4-diamino-pyrimidin-5-ylmethyl)-6-ethoxy-3′-fluoro-biphenyl-2-yl ester] | 1 µg/mL (≈ 2.1 µM) | 320 nM | 2 µg/mL (≈ 4.2 µM) | 5.8 nM |  |  | 
CCOc1cc(Cc2cnc(N)nc2N)cc(OS(=O)(=O)N2CCCC2)c1-c1ccc(O)cc1 [Example 20-c, Pyrrolidine-1-sulrbonic acid 4-(2,4-diamino-pyrimidin-5-ylmethyl)-6-ethoxy-4′-hydroxy-biphenyl-2-yl ester] | 1 µg/mL (≈ 2.06 µM) | 180 nM | 4 µg/mL (≈ 8.24 µM) | 8.1 nM |  |  | 
CCOc1cc(Cc2cnc(N)nc2N)cc(OCC)c1-c1ccc(N2CC(COC)OC2=O)cc1 (racemic) [Example 04-s, (RS)-3-[4′-(2,4-Diamino-pyrimidin-5-ylmethyl)-2′,6′-diethoxy-biphenyl-4-yl]-5-methoxymethyl-oxazolidin-2-one] | 4 µg/mL (≈ 8.1 µM) | 1900 nM | 8 µg/mL (≈ 16.2 µM) | 61 nM |  |  | 
CCOc1cc(Cc2cnc(N)nc2N)cc(OCC)c1-c1ccc(NC(=O)CN2CCOCC2)cc1 [Example 04-g, N-[4′-(2,4-Diamino-pyrimidin-5-ylmethyl)-2′,6′-diethoxy-biphenyl-4-yl]-2-morpholin-4-yl-acetamide] | 4 µg/mL (≈ 7.9 µM) | 1100 nM | 8 µg/mL (≈ 15.8 µM) | 40 nM |  |  | 
CCOc1cc(Cc2cnc(N)nc2N)cc(OS(=O)(=O)N(C)C)c1-c1ccc(CN(C)CCF)cc1 [Example 66-, Dimethylsulphamic acid 4-(2,4-diamino-pyrimidin-5-ylmethyl)-6-ethoxy-4′-{[N-(2-fluoro-ethyl)-N-methyl-amino]-methyl}-binhenyl-2-yl ester] | 4 µg/mL (≈ 7.51 µM) | 170 nM | 2 µg/mL (≈ 3.75 µM) | 52 nM |  |  | 
CCOc1cc(Cc2cnc(N)nc2N)cc(OS(=O)(=O)N(C)C)c1-c1ccc(N)c(C)c1 [Example 27-a, Dimethylsulphamic acid 4′-amino-4-(2,4-diamino-pyrimidin-5-ylmethyl)-6-ethoxy-3′-methyl-biphenyl-2-yl ester] | 1 µg/mL (≈ 2.12 µM) | 220 nM | 2 µg/mL (≈ 4.23 µM) | 22 nM |  |  | 
CCOc1cc(Cc2cnc(N)nc2N)cc(OCC)c1-c1ccc(N)c(C#N)c1 [Example 04-h, 4-Amino-4′-(2,4-diamino-pyrimidin-5-ylmethyl)-2′,6′diethoxy-biphenyl-3-carbonitrile] | 2 µg/mL (≈ 4.94 µM) | 1000 nM | 4 µg/mL (≈ 9.89 µM) | 42 nM |  |  | 
CCOc1cc(Cc2cnc(N)nc2N)cc(OCC)c1-c1ccc2c(c1)CCCN2 [Example 49-, 5-[3,5-Diethoxy-4-(1,2,3,4-tetrahydro-quinolin-6-yl)-benzyl]-pyrimidine-2,4-diamine] | 8 µg/mL (≈ 19.1 µM) | 820 nM | 4 µg/mL (≈ 9.53 µM) | 46 nM |  |  | 
CCOc1cc(Cc2cnc(N)nc2N)cc(OCC2CC2)c1-c1ccc2c(c1)OCO2 [Example 10-b, 5-(4-Benzo[1.3]dioxol-5-yl-3-cyclopropylmethoxy-5-ethoxy-benzyl)-pyrimidine-2,4-diamine] | 2 µg/mL (≈ 4.6 µM) | 2400 nM | 8 µg/mL (≈ 18.4 µM) | 40 nM |  |  | 
CCOc1cc(Cc2cnc(N)nc2N)cc(OCC2(C#N)CC2)c1-c1ccc(O)cc1 [Example 08-f, 1-[4-(2,4-Diamino-pyrimidin-5-ylmethyl)-6-ethoxy-4′-hydroxy-biphenyl-2-yloxymethyl]-cyclopropanecarbonitrile] | 4 µg/mL (≈ 9.27 µM) | 950 nM | 8 µg/mL (≈ 18.5 µM) | 49 nM |  |  | 
CCOc1cc(Cc2cnc(N)nc2N)cc(OCC)c1-c1ccc(CN2CCC(=O)N2)cc1 [Example 04-w, 1-[4′-(2,4-Diamino-pyrimidin-5-lmethyl)-2′,6′-diethoxy-biphenyl-4-ylmethyl]-pyrazolidin-3-one] | 8 µg/mL (≈ 17.3 µM) | 1200 nM | 8 µg/mL (≈ 17.3 µM) | 82 nM |  |  | 
CCOc1cc(Cc2cnc(N)nc2N)cc(OCC2CC2)c1-c1ccc(OC)c(N)c1 [Example 12-, 5-(3′-Amino-2-cyclopropylmethoxy-6-ethoxy-4′-methoxy-biphenyl-4-ylmethl)-pyrimidine-2,4-diamine] | 2 µg/mL (≈ 4.59 µM) | 1800 nM | 8 µg/mL (≈ 18.4 µM) | 14 nM |  |  | 
CCOc1cc(Cc2cnc(N)nc2N)cc(OCC)c1-c1ccc(CN2CCOCC2)c(F)c1 [Example 04-z] | 4 µg/mL (≈ 8.31 µM) | 3800 nM | 8 µg/mL (≈ 16.6 µM) | 58 nM |  |  | 
CCOc1cc(Cc2cnc(N)nc2N)cc(OC2CCCC2COC)c1-c1ccc(O)cc1 (racemic) [Example 08-v, rac-(E)-5-[6-Ethoxy-4′-hydroxy-2-(2-methoxymethyl-cyclopentyloxy)-biphenyl-4-ylmethyl]-pyrimidine-2,4-diamine] | 2 µg/mL (≈ 4.31 µM) | 1500 nM | 8 µg/mL (≈ 17.2 µM) | 82 nM |  |  | 
CCOc1cc(Cc2cnc(N)nc2N)cc(OS(=O)(=O)C(C)C)c1-c1ccc(OC)cc1 [Example 16-c, Propane-2-sulphonic acid 4-(2,4-diamino-Ryimidin-5-ylmethyl)-6-ethoxy-4′-methoxy-biphenyl-2-yl ester] | 2 µg/mL (≈ 4.23 µM) | 260 nM | 2 µg/mL (≈ 4.23 µM) | 18 nM |  |  | 
CCOc1cc(Cc2cnc(N)nc2N)cc(OCC)c1-c1ccc(CN2CCCC2)c(F)c1 [Example 04-aa, 5-(2,6-Diethoxy-3′-fluoro-4′-pyrrolidin-1-ylmethyl-biphenyl-4-ylmethyl)-pyrimidine-2,4-diamine] | 8 µg/mL (≈ 17.2 µM) | 1800 nM | 8 µg/mL (≈ 17.2 µM) | 330 nM |  |  | 
